Measured values reported in patent publication US4794118A, “1,4-benzodioxane derivatives” (Eisai Co., Ltd., priority 1985, dated 1988).

Tests used:
[1] = tested on: spontaneously hypertensive rats (SHR); assay: Hypotensive effects in spontaneously hypertensive rats (SHR) under anesthesia; assay type: in vivo, rat (SHR); details: anesthetized SHR
Experimental: Hypotensive effects in spontaneously hypertensive rats (SHR) under anesthesia
Male SHR of 20 weeks of age or older were anesthetized with sodium pentobarbital (40 mg/kg, i.p.). The carotid artery and jugular vein were cannulated. Blood pressure was recorded from the carotid artery on a polygraph via a pressure transducer. Test compounds were dissolved in a solution containing 0.9% NaCl and 1% Tween 80 and administered either intravenously into the jugular vein or intraduodenally through a cannula inserted into the duodenum.
As a representative of this invention, compound A (8-hydroxy-2-nitrato-methyl-7-nitro-1,4-benzodioxane) was chosen.

[2] = tested on: arterial and venous systems; assay: Effects on the arterial and venous systems in anesthetized open-chest dogs; assay type: in vivo, mongrel dogs; details: for Max. change in mean blood pressure at diastole, Aortic / Max. change in mean blood pressure at diastole, Pulmonary: anesthetized open-chest dogs
Experimental: Effects on the arterial and venous systems in anesthetized open-chest dogs
Mongrel dogs of either sex, weighing 12-16 kg were subjected to inhalation anesthesia with enflurane under artificial respiration. The dogs were subjected to thoracotomy through the fourth right intercostal wall and catheters were inserted into the thoracic aorta and right pulmonary artery. The aortic and pulmonary blood pressures were measured by means of cathether tip-type piezoelectric transducers.
Test compounds were cumulatively administered with intervals of 30 minutes either intravenously or intraduodenally through catheters placed in the left femoral vein and duodenum.

coronary blood flow = assay: Effects on the coronary blood flow in anesthetized open-chest dogs; assay type: in vivo, mongrel dogs; details: for Max. increase in coronary blood flow: anesthetized open-chest dogs
Experimental: Effects on the coronary blood flow in anesthetized open-chest dogs
Mongrel dogs of either sex weighing 9-14 kg were subjected to inhalation anesthesia with enflurane under artificial respiration. […] Test compounds were administered cumulatively at intervals of 10 minutes through a catheter inserted into the left femoral vein.

Acute toxicity in mice = details: mouse, in vivo
Experimental: Acute toxicity in mice was investigated with respect to 8-hydroxy-2-nitratomethyl-7-nitro-1,4-benzodioxane. […] A similar experiment was also conducted with an intravenous administration of NG.

[3] = intravenous administration, dogs
[4] = intravenous, dogs, vs nicorandil

O=[N+]([O-])OCC1COc2ccc([N+](=O)[O-])c(O)c2O1 (stereo not drawn) [Compound A, 8-hydroxy-2-nitratomethyl-7-nitro-1,4-benzodioxane]
minimal effective dose ([1]; Rattus norvegicus, intravenous administration, read-out: dose as small as which caused a marked hypotension): 0.0003 mg/kg | hypotension ([1]; intraduodenal administration): dose-dependent hypotension | hypotensive potency relative to ISDN ([1]; intraduodenal, vs ISDN): ~30 times | hypotensive potency relative to NG ([1]; intraduodenal, vs NG): ~10 times | hypotensive potency relative to nicorandil ([1]; intraduodenal, vs nicorandil): about 5 times | potency to cause 30% decrease in mean aortic pressure relative to ISDN ([1]; intravenous, vs ISDN): 250 times | potency to cause 30% decrease in mean aortic pressure relative to NG ([1]; intravenous, vs NG): 5 times | potency to cause 30% decrease in mean aortic pressure relative to nicorandil ([1]; intravenous, vs nicorandil): 300 times | Max. change in mean blood pressure at diastole, Aortic ([2]; i.d, 30 μg/Kg): -2 mm/Hg | Max. change in mean blood pressure at diastole, Pulmonary ([2]; i.d, 30 μg/Kg): -1.5 mm/Hg | Max. change in mean blood pressure at diastole, Aortic ([2]; i.d, 100 μg/Kg): -15 mm/Hg | Max. change in mean blood pressure at diastole, Pulmonary ([2]; i.d, 100 μg/Kg): -2.5 mm/Hg | Max. change in mean blood pressure at diastole, Aortic ([2]; i.d, 300 μg/Kg): -22 mm/Hg | Max. change in mean blood pressure at diastole, Pulmonary ([2]; i.d, 300 μg/Kg): -3.5 mm/Hg | Max. change in mean blood pressure at diastole, Aortic ([2]; i.v, 1 μg/Kg): -23 mm/Hg | Max. change in mean blood pressure at diastole, Pulmonary ([2]; i.v, 1 μg/Kg): -2.5 mm/Hg | Max. change in mean blood pressure at diastole, Aortic ([2]; i.v, 3 μg/Kg): -39.2 mm/Hg | Max. change in mean blood pressure at diastole, Pulmonary ([2]; i.v, 3 μg/Kg): -3.2 mm/Hg | Max. change in mean blood pressure at diastole, Aortic ([2]; i.v, 10 μg/Kg): -44.2 mm/Hg | Max. change in mean blood pressure at diastole, Pulmonary ([2]; i.v, 10 μg/Kg): -5.3 mm/Hg | reductions in aortic and pulmonary blood pressures ([2]; intraduodenal administration, dogs): dose-dependent reductions in aortic and pulmonary blood pressures | potency (reductions in aortic and pulmonary blood pressures) relative to NG ([2]; intraduodenal, dogs, vs NG): about 3 times | reduction of aortic and pulmonary blood pressure [2, 3]: reduced aortic and pulmonary blood pressure dose-dependently | vasodilating effect on the arterial system (reduction in aortic blood pressure) relative to nicorandil [2, 4]: about 3 times | vasodilating effect on the venous system (reduction in pulmonary blood pressure) relative to nicorandil [2, 4]: about 3 times | Max. increase in coronary blood flow (coronary blood flow; 1 μg/Kg, intravenous): 52.0% | Max. increase in coronary blood flow (coronary blood flow; 3 μg/Kg, intravenous): 84.7% | Max. increase in coronary blood flow (coronary blood flow; 10 μg/Kg, intravenous): 127.6% | dose range causing a marked and dose-dependent increase in coronary blood flow (coronary blood flow; [3]): 0.001 to 0.01 mg/kg | effect on the coronary flow, potency relative to NG (coronary blood flow; intravenous, dogs, vs NG): about 3 times | LD50 (Acute toxicity in mice; intravenous administration): 200 to 250 mg/kg | LD50 (Acute toxicity in mice; oral administration): 500 to 1000 mg/kg

O=[N+]([O-])OCC(CO[N+](=O)[O-])O[N+](=O)[O-] [NG, nitroglycerin]
Max. change in mean blood pressure at diastole, Aortic ([2]; i.d, 30 μg/Kg): -1.7 mm/Hg | Max. change in mean blood pressure at diastole, Pulmonary ([2]; i.d, 30 μg/Kg): -0.7 mm/Hg | Max. change in mean blood pressure at diastole, Aortic ([2]; i.d, 100 μg/Kg): -3.3 mm/Hg | Max. change in mean blood pressure at diastole, Pulmonary ([2]; i.d, 100 μg/Kg): -1 mm/Hg | Max. change in mean blood pressure at diastole, Aortic ([2]; i.d, 300 μg/Kg): -10 mm/Hg | Max. change in mean blood pressure at diastole, Pulmonary ([2]; i.d, 300 μg/Kg): -1.7 mm/Hg | Max. change in mean blood pressure at diastole, Aortic ([2]; i.v, 3 μg/Kg): -21.7 mm/Hg | Max. change in mean blood pressure at diastole, Pulmonary ([2]; i.v, 3 μg/Kg): -0.8 mm/Hg | Max. change in mean blood pressure at diastole, Aortic ([2]; i.v, 10 μg/Kg): -33.3 mm/Hg | Max. change in mean blood pressure at diastole, Pulmonary ([2]; i.v, 10 μg/Kg): -3.0 mm/Hg | Max. change in mean blood pressure at diastole, Aortic ([2]; i.v, 30 μg/Kg): -40.0 mm/Hg | Max. change in mean blood pressure at diastole, Pulmonary ([2]; i.v, 30 μg/Kg): -3.7 mm/Hg | Max. increase in coronary blood flow (coronary blood flow; 3 μg/Kg, intravenous): 31.3% | Max. increase in coronary blood flow (coronary blood flow; 10 μg/Kg, intravenous): 79.7% | Max. increase in coronary blood flow (coronary blood flow; 30 μg/Kg, intravenous): 165.0% | LD50 (Acute toxicity in mice; intravenous administration): 10 to 15 mg/kg

O=C(NCCO[N+](=O)[O-])c1cccnc1 [Nicorandil, N-[2-(nitroxy)ethyl]-3-pyridinecarboxamide]
Max. change in mean blood pressure at diastole, Aortic ([2]; i.v, 30 μg/Kg): -10.3 mm/Hg | Max. change in mean blood pressure at diastole, Pulmonary ([2]; i.v, 30 μg/Kg): -1 mm/Hg | Max. change in mean blood pressure at diastole, Aortic ([2]; i.v, 100 μg/Kg): -18.6 mm/Hg | Max. change in mean blood pressure at diastole, Pulmonary ([2]; i.v, 100 μg/Kg): -1.5 mm/Hg | Max. change in mean blood pressure at diastole, Aortic ([2]; i.v, 300 μg/Kg): -50.9 mm/Hg | Max. change in mean blood pressure at diastole, Pulmonary ([2]; i.v, 300 μg/Kg): -2.1 mm/Hg
